Source: patent US8063048B2, “Acetylenyl-pyrazolo-pyrimidine derivatives” (Hoffmann-La Roche Inc., priority 2005, dated 2011)

Row | SMILES | melting point [°C]
1 | NS(=O)(=O)c1ccc(C#Cc2cnc3ccc(-c4ccc(C(F)(F)F)cc4)cn23)s1 [Example 217, 5-[6-(4-Trifluoromethyl-phenyl)-imidazo[1,2-a]pyridin-3-ylethynyl]-thiophene-2-sulfonic acid amide] | 206 to 210
2 | O=S(=O)(NC(CO)(CO)CO)c1cncc(C#Cc2cnn3c(C(F)(F)F)cc(-c4ccc(C(F)(F)F)cc4)nc23)c1 [Example 22, 5-[7-Trifluoromethyl-5-(4-trifluoromethyl-phenyl)-pyrazolo[1,5-a]pyrimidin-3-ylethynyl]-pyridine-3-sulfonic acid (2-hydroxy-1,1-bis-hydroxymethyl-ethyl)-amide] | 230 to 232
3 | Fc1ccc(C#Cc2cnn3c(C(F)(F)F)cc(-c4ccc(C(F)(F)F)cc4)nc23)cn1 [Example 149, 3-(6-Fluoro-pyridin-3-ylethynyl)-7-trifluoromethyl-5-(4-trifluoromethyl-phenyl)-pyrazolo[1,5-a]pyrimidine] | 213 to 216
4 | COc1cncc(C#Cc2cnn3c(C(F)(F)F)cc(-c4ccc(C(F)(F)F)cc4)nc23)c1 [Example 57, 3-(5-Methoxy-pyridin-3-ylethynyl)-7-trifluoromethyl-5-(4-trifluoromethyl-phenyl)-pyrazolo[1,5-a]pyrimidine] | 232 to 234
5 | Nc1ccc(C#Cc2cnn3c(C(F)(F)F)cc(-c4ccc(C(F)(F)F)cc4)nc23)nn1 [Example 246, 6-[7-Trifluoromethyl-5-(4-trifluoromethyl-phenyl)-pyrazolo[1,5-a]pyrimidin-3-ylethynyl]-pyridazin-3-ylamine] | 214 to 216
6 | NS(=O)(=O)c1cc(C#Cc2cnn3c(C(F)(F)F)cc(-c4ccc(Cl)c(Cl)c4)nc23)c(F)cc1F [Example 92, 5-[5-(3,4-Dichloro-phenyl)-7-trifluoromethyl-pyrazolo[1,5-a]pyrimidin-3-ylethynyl]-2,4-difluoro-benzenesulfonamide] | 308 to 310
7 | COCCNS(=O)(=O)c1cccc(C#Cc2cnn3c(C(F)(F)F)cc(-c4ccc(C(F)(F)F)cc4)nc23)c1 [Example 131, N-(2-Methoxy-ethyl)-3-[7-trifluoromethyl-5-(4-trifluoromethyl-phenyl)-pyrazolo[1,5-a]pyrimidin-3-ylethynyl]-benzenesulfonamide] | 186 to 188
8 | Cc1cc(-c2ccc(C(F)(F)F)cc2)cn2c(C#Cc3cncc(S(=O)(=O)NC(C)(C)CO)c3)cnc12 [Example 228, 5-[8-Methyl-6-(4-trifluoromethyl-phenyl)-imidazo[1,2-a]pyridin-3-ylethynyl]-pyridine-3-sulfonic acid (2-hydroxy-1,1-dimethyl-ethyl)-amide] | 189
9 | FC(F)(F)c1ccc(-c2cc(C(F)(F)F)n3ncc(C#Cc4ccnc(Cl)n4)c3n2)cc1 [Example 183, 3-(2-Chloro-pyrimidin-4-ylethynyl)-7-trifluoromethyl-5-(4-trifluoromethyl-phenyl)-pyrazolo[1,5-a]pyrimidine] | 192 to 195
10 | Cc1cc(-c2cc(C(F)(F)F)n3ncc(C#Cc4ccc(S(N)(=O)=O)cc4)c3n2)ccc1Cl [Example 110, 4-[5-(4-Chloro-3-methyl-phenyl)-7-trifluoromethyl-pyrazolo[1,5-a]pyrimidin-3-ylethynyl]-benzenesulfonamide] | 275
11 | NS(=O)(=O)c1cccc(C#Cc2cnc3c(C(F)(F)F)cc(-c4ccc(C(F)(F)F)cc4)cn23)c1 [Example 194, 3-[8-Trifluoromethyl-6-(4-trifluoromethyl-phenyl)-imidazo[1,2-a]pyridin-3-ylethynyl]-benzenesulfonamide] | 240
12 | CC(=O)Nc1ncc(C#Cc2cnn3c(C(F)(F)F)cc(-c4ccc(C(F)(F)F)cc4)nc23)s1 [Example 291, N-{5-[7-Trifluoromethyl-5-(4-trifluoromethyl-phenyl)-pyrazolo[1,5-a]pyrimidin-3-ylethynyl]-thiazol-2-yl}-acetamide] | 302
13 | CN1CCN(S(=O)(=O)c2ccc(C#Cc3cnn4c(C(F)F)cc(-c5cccc(C(F)(F)F)c5)nc34)s2)CC1 [Example 248, 7-Difluoromethyl-3-[5-(4-methyl-piperazine-1-sulfonyl)-thiophen-2-ylethynyl]-5-(3-trifluoromethyl-phenyl)-pyrazolo[1,5-a]pyrimidine] | 214
14 | Cc1cc(-c2cc(C(F)(F)F)n3ncc(C#Cc4cccc(S(N)(=O)=O)c4)c3n2)ccc1Cl [Example 112, 3-[5-(4-Chloro-3-methyl-phenyl)-7-trifluoromethyl-pyrazolo[1,5-a]pyrimidin-3-ylethynyl]-benzenesulfonamide] | 234
15 | NS(=O)(=O)c1ccc(C#Cc2ncn3c(C(F)F)cc(-c4ccc(C(F)(F)F)cc4)nc23)s1 [Example 275, 5-[4-Difluoromethyl-2-(4-trifluoromethyl-phenyl)-imidazo[1,5-a]pyrimidin-8-ylethynyl]-thiophene-2-sulfonic acid amide] | 223
16 | N#Cc1ccc(C#Cc2cnn3c(C(F)(F)F)cc(-c4ccc(C(F)(F)F)cc4)nc23)cn1 [Example 288, 5-[7-Trifluoromethyl-5-(4-trifluoromethyl-phenyl)-pyrazolo[1,5-a]pyrimidin-3-ylethynyl]-pyridine-2-carbonitrile] | 212
17 | Nc1ncc(C#Cc2cnc3ccc(-c4ccc(C(F)(F)F)cc4)cn23)cn1 [Example 238, 5-[6-(4-Trifluoromethyl-phenyl)-imidazo[1,2-a]pyridin-3-ylethynyl]-pyrimidin-2-ylamine] | 244 to 246
18 | N#Cc1cc(C#Cc2cnn3c(C(F)F)cc(-c4ccc(C(F)(F)F)cc4)nc23)cnc1N [Example 218, 2-Amino-5-[7-difluoromethyl-5-(4-trifluoromethyl-phenyl)-pyrazolo[1,5-a]pyrimidin-3-ylethynyl]-nicotinonitrile] | 255
19 | COc1ncc(S(=O)(=O)NC(C)(CO)CO)cc1C#Cc1cnn2c(C(F)(F)F)cc(-c3ccc(C(F)(F)F)cc3)nc12 [Example 25, 6-Methoxy-5-[7-trifluoromethyl-5-(4-trifluoromethyl-phenyl)-pyrazolo[1,5-a]pyrimidin-3-ylethynyl]-pyridine-3-sulfonic acid (2-hydroxy-1-hydroxymethyl-1-methyl-ethyl)-amide] | 233 to 235
20 | Nc1ccc(C#Cc2ncn3c(C(F)(F)F)cc(-c4ccc(C(F)(F)F)cc4)nc23)cn1 [Example 284, 5-[4-Trifluoromethyl-2-(4-trifluoromethyl-phenyl)-imidazo[1,5-a]pyrimidin-8-ylethynyl]-pyridin-2-ylamine] | 225
21 | CC(CO)NS(=O)(=O)c1cncc(C#Cc2cnn3c(C(F)(F)F)cc(-c4ccc(C(F)(F)F)cc4)nc23)c1 (stereo not drawn) [Example 28, 5-[7-Trifluoromethyl-5-(4-trifluoromethyl-phenyl)-pyrazolo[1,5-a]pyrimidin-3-ylethynyl]-pyridine-3-sulfonic acid (2-hydroxy-1-methyl-ethyl)-amide] | 225 to 226
22 | O=S(=O)(c1ccc(C#Cc2cnn3c(C(F)(F)F)cc(-c4ccc(C(F)(F)F)cc4)nc23)s1)N1CCNCC1 [Example 260, 3-[5-(piperazine-1-sulfonyl)-thiophen-2-ylethynyl]-7-trifluoromethyl-5-(4-trifluoromethyl-phenyl)-pyrazolo[1,5-a]pyrimidine] | 223
23 | CN(C)CCNS(=O)(=O)c1ccc(C#Cc2cnn3c(C(F)(F)F)cc(-c4ccc(C(F)(F)F)cc4)nc23)s1 [Example 159, 5-[7-Trifluoromethyl-5-(4-trifluoromethyl-phenyl)-pyrazolo[1,5-a]pyrimidin-3-ylethynyl]-thiophene-2-sulfonic acid (2-dimethylamino-ethyl)-amide] | 178
24 | Cc1cc(C#Cc2cnn3c(C(F)(F)F)cc(-c4ccc(C(F)(F)F)cc4)nc23)cnc1N [Example 127, 3-Methyl-5-[7-trifluoromethyl-5-(4-trifluoromethyl-phenyl)-pyrazolo[1,5-a]pyrimidin-3-ylethynyl]-pyridin-2-ylamine] | 233 to 234
25 | Nc1ccc(C#Cc2cnc3c(F)cc(-c4ccc(Cl)cc4)cn23)cn1 [Example 241, 5-[6-(4-Chloro-phenyl)-8-fluoro-imidazo[1,2-a]pyridin-3-ylethynyl]-pyridin-2-ylamine] | 259
26 | NS(=O)(=O)c1ccc(C#Cc2cnn3c(C(F)(F)F)cc(-c4ccc(Cl)cc4)nc23)s1 [Example 97, 5-[5-(4-Chloro-phenyl)-7-trifluoromethyl-pyrazolo[1,5-a]pyrimidin-3-ylethynyl]-thiophene-2-sulfonic acid amide] | 239 to 240
27 | Cc1cc(-c2cc(C(F)(F)F)n3ncc(C#Cc4cc(S(N)(=O)=O)c(F)cc4F)c3n2)ccc1Cl [Example 111, 5-[5-(4-Chloro-3-methyl-phenyl)-7-trifluoromethyl-pyrazolo[1,5-a]pyrimidin-3-ylethynyl]-2,4-difluoro-benzenesulfonamide] | 294
28 | CC(C)(CO)NS(=O)(=O)c1cnc(C#Cc2cnc3c(C(F)(F)F)cc(-c4ccc(C(F)(F)F)cc4)cn23)s1 [Example 196, 2-[8-Trifluoromethyl-6-(4-trifluoromethyl-phenyl)-imidazo[1,2-a]pyridin-3-ylethynyl]-thiazole-5-sulfonic acid (2-hydroxy-1,1-dimethyl-ethyl)-amide] | 202 to 203
29 | CC(=O)N(C(C)=O)c1ncc(C#Cc2cnn3c(C(F)(F)F)cc(-c4ccc(C(F)(F)F)cc4)nc23)cn1 [Example 244, N-Acetyl-N-{5-[7-trifluoromethyl-5-(4-trifluoromethyl-phenyl)-pyrazolo[1,5-a]pyrimidin-3-ylethynyl]-pyrimidin-2-yl}-acetamide] | 253 to 254
30 | Cc1cc(-c2cc(C(F)F)n3ncc(C#Cc4ccc(S(=O)(=O)NCCN(C)C)s4)c3n2)ccc1Cl [Example 256, 5-[5-(4-Chloro-3-methyl-phenyl)-7-difluoromethyl-pyrazolo[1,5-a]pyrimidin-3-ylethynyl]-thiophene-2-sulfonic acid (2-dimethylamino-ethyl)-amide] | 149
